# Entries after “also recorded” stand apart in the source; their conditions may differ.
# Assays:
# [1] = test system: Cell Line 1 (CHO) expressing Antibody 1; assay: Acidic species variants (WCX-10) of Antibody 1, Cell Line 1 3 L bioreactor fed-batch culture; assay type: cell-based, Chinese Hamster; settings: for drop in absolute acidic species percentage points: 3 L bioreactor; for drop in absolute acidic species percentage points / relative total AR (ratio to Day 8 value of unsupplemented control): Day 15 harvest
# Protocol: (§1) A recombinant Chinese Hamster Ovary (CHO) cell line (Cell Line 1) expressing a humanized monoclonal antibody (Antibody 1) was evaluated in 2 different cultures vessels (shaker flasks and 3 L laboratory-scale bioreactors). The cell line was of CHO DUX-B11 origin based on a DHFR (dihydrofolate reductase) expression system and cultured in a chemically defined basal media, and fed periodically with a chemically-defined feed media (CDFM). The media utilized throughout all of the experiments were chemically-defined, and both animal-component free, and protein-free. Each of the respective media were supplemented as needed with selected bioflavonoids to evaluate for their potential impact on the resulting acidic species profile. In preparation of the cultures, the cell lines were serially expanded through separate seed train inoculums to generate enough cells for inoculation. Process conditions utilized during the cultures were slightly different depending on the culture scale, but similar within each scale to the respective non-bioflavonoid supplemented control conditions. All bioflavonoids utilized were purchased from Sigma-Aldrich (St. Louis, Mo.).
# Samples were analyzed using an HPLC system equipped with a ProPac WCX-10 analytical column (Thermo Scientific, Sunnyvale, Calif.). Approximately 100 μg of sample was loaded in 6% Buffer B (10 mM sodium phosphate, 500 mM NaCl, pH 5.5) and 94% Buffer A (10 mM sodium phosphate, pH 7.5). The column was run at a flow rate of 1.0 mL/min. The protein was eluted from the column by increasing the buffer B composition from 6% to 16% over 20 minutes. The protein peaks were measured using UV absorbance at 280 nm as the peaks eluted from the column. The column was regenerated using 100% buffer B followed be a re-equilibration period using initial condition before the injection of the next sample. Peaks eluting before the main peak were termed “acidic peaks” and peaks eluting after the main peak were called “basic peaks” (FIG. 2).
# (§2) In the next experiment, lab-scale bioreactors were used to (1) confirm the shaker experiment results and (2) to determine whether higher concentration range of EGCG is suitable for supplementing into cell culture. EGCG was added to the feed of the batch culture at the concentrations of 20 mg/L (mid), 50 mg/L (high) and 125 mg/L (high+) and 250 mg/L (high++) in this reactor experiment.
# (§3) Cell Line 1 was evaluated in larger-scale feed batch cultures with the feed media supplemented with various bioflavonoids. […] By contrast, cell growth performance was slightly different for the 0.1 g/L EGCG supplemented condition. […] However, the cell viability remained high at 0.1 g/L EGCG. All cultures were successfully harvested on Day 15 post-inoculation. The harvest titers measured from the evaluated cultures were similar.
# (§4) Cell Line 1 was also evaluated in laboratory-scale fedbatch cultures with the feed media supplemented with various bioflavonoids. […] Cell growth performance was slightly different however with the 0.1 g/L EGCG supplemented condition. […] All cultures were able to be successfully harvested on Day 15 post-inoculation.
# [2] = test system: Cell Line 1 (CHO) expressing Antibody 1; assay: Cell culture performance (cell growth, viability, titer), Cell Line 1 3 L bioreactor fed-batch culture; assay type: cell-based, Chinese Hamster
# Protocol: as §1
# (§5) Viable cell density (VCD) and cell viability values were measured through trypan blue exclusion via Cedex automated cell counters (Roche Applied Science, Indianapolis, Ind.), glucose and lactate values were measured with a ABL-805 (Radiometer Medical, Denmark) blood gas analyzer. Offline pH, dissolved oxygen (DO), and pCO2 measurements were performed as needed with an ABL-805 (Radiometer Medical, Denmark) blood gas analyzer. Osmolality was measured as needed on a Multi-Osmette 2430 osmometer (Precision Systems, Natick, Mass.).
# (§6) Antibody titers were measured from crude cell culture harvests on a Poros A™ (Life Technologies, Carlsbad, Calif.) affinity column using an HPLC system operating with a low pH, step elution gradient with detection at 280 nm. Absolute concentrations were assigned with respect to reference standard calibration curves.
# as §2, §3, §4
# [3] = test system: Cell Line 2 (CHO) expressing Antibody 2; assay: Cell culture performance, Cell Line 2 lab-scale bioreactor culture; assay type: cell-based, Chinese Hamster; settings: 0.1 g/L in 100% feed and equivalent in 50% feed
# Protocol: (§7) Four different recombinant Chinese Hamster Ovary (CHO) cell lines expressing four different recombinant glycoproteins were evaluated in either shaker flask culture, or 3 L laboratory scale bioreactors. Cell Line 1 was genetically engineered to express Antibody 1, Cell Line 2 was genetically engineered to express Antibody 2, Cell Line 3 was genetically engineered to express dual variable domain immunoglobulin 1 (DVD1) and Cell Line 4 was genetically engineered to express dual variable domain immunoglobulin 2 (DVD2).
# as §5, with “pCO2 (Dissolved carbon dioxide)” for “pCO2”
# Protein A Affinity Chromatography-Antibody titers were measured from crude cell culture harvests on a Poros ATM (Life Technologies, Carlsbad, Calif.) affinity column using an HPLC system operating with a low pH, step elution gradient with detection at 280 nm. […]
# [4] = test system: recombinant CHO cell lines; assay: Harvest titer / productivity summary across bioflavonoid supplemented cultures; assay type: cell-based, Chinese Hamster
# Protocol: as §7
# as §6, with “Protein A Affinity Chromatography-Antibody” for “Antibody”, “ATM” for “A™”
# [5] = test system: Cell Line 3 (CHO) expressing DVD1; assay: Cell culture performance, Cell Line 3 shake flask culture; settings: shaker
# [6] = 50, 125 and 250 mg/L in feed, bioreactor
smiles,measurement,setting,value
"O=C(O[C@@H]1Cc2c(O)cc(O)cc2O[C@@H]1c1cc(O)c(O)c(O)c1)c1cc(O)c(O)c(O)c1 [EGCG, epigallocatechin gallate]",drop in absolute acidic species percentage points,[1]; 0.05 g/L in CDFM,4%
same,relative total AR (ratio to Day 8 value of unsupplemented control),"[1]; 0.05 g/L in CDFM, bioreactor",1.10
same,drop in absolute acidic species percentage points,[1]; 0.1 g/L in CDFM,10%
same,relative total AR (ratio to Day 8 value of unsupplemented control),"[1]; 0.1 g/L in CDFM, bioreactor",0.69
same,"reduction of total acidic species content, absolute value",[1]; [6],at least 2%
same,"reduction of total acidic species content, relative value",[1]; [6],≥ 16%
same,peak viable cell density,"[2]; 0.05 g/L in CDFM, bioreactor, Day 8",approximately 12×10^6 cells/mL
same,harvest titer vs control,"[2]; 0.05 g/L in CDFM, bioreactor, Day 15 harvest",outperforming the control condition by a nominal amount; also recorded: outperformed the control condition by a nominal amount
same,cell growth profile vs unsupplemented control,"[2]; 0.1 g/L in CDFM, bioreactor",lower than the unsupplemented control culture
same,cell viability,"[2]; 0.1 g/L in CDFM, bioreactor",remained high
same,impact on cell culture performance,"[2]; 250 mg/L in feed, bioreactor",reduction in early cell culture viability and titer reduction
same,"impact on cell culture performance (cell growth, viability, titer)","[2]; 20, 50 and 125 mg/L in 1.5×JCL5 feed media, bioreactor",no impact on cell culture performance
same,concentration (turning point) at which peak viable cell density began to drop lower than unsupplemented control,[2]; Cell Line 1,125 µg/mL
same,"impact on cell culture performance (cell growth, viability, titer)",[3],negligible impact on cell culture performance
same,drop in harvest titer,"[4]; concentrations up to 0.1 g/L, supplemented cultures overall",at most 8%
same,recombinant protein productivity,[4]; supplementation up to 0.2 g/L,only nominally impacted
same,"growth profile, viability and productivity vs control","[5]; 0.02, 0.05 and 0.1 g/L in feed",performed very similarly to control cultures
same,viability decrease compared to control,[5]; 0.2 g/L in feed,15%
